The source of these data is ChEMBL document CHEMBL4373727, “Thienopyrimidinone Derivatives That Inhibit Bacterial tRNA (Guanine37-N1)-Methyltransferase (TrmD) by Restructuring the Active Site with a Tyrosine-Flipping Mechanism” (J Med Chem, 2019).

A short description of the test: Selectivity ratio of Kd for full length Mycobacterium tuberculosis tRNA (guanine(37)-N1)-methyltransferase expressed in Escherichia coli BL21 (DE3) to Kd for Pseudomonas aeruginosa tRNA (guanine(37)-N1)-methyltransferase (Leu5 to Asp25 residues) expressed in Escherichia coli BL21 (DE3) Rosetta T1R cells.

As to `NC1CCN(Cc2ccc(CNC(=O)c3csc4nc[nH]c(=O)c34)cc2)CC1`, the Ratio fell in the range of 100 to 300. To `CCCCCCCCNCc1ccc(CNC(=O)c2csc3nc[nH]c(=O)c23)cc1` belongs 100.
